Entries after “also recorded” stand apart in the source; their conditions may differ.
Key:
mutants TgUPRT = experiment: Phosphoribosyltransferase activity with recombinant TgUPRT mutants; type: biochemical, Toxoplasma gondii; conditions: five recombinant TgUPRT mutants, FIG. 9A
Protocol: Enzyme activity assay: The standard activity assay was performed by incubating 10 μL of free extract or 0.5 μg of pure His-tag enzyme with 1 mM Phosphoribosyl pyrophosphate (PRPP), 1 mM uracil, 5 mM MgCl2 in 50 mM PBS buffer pH 7.4 in a final volume of 80 μL. The reaction mixture was incubated at 37° C. for 2-5 min (300 rpm). Enzyme was inactivated by adding 80 μL of cold methanol in ice-bath and heating for 5 min at 100° C. After centrifugation at 9000×g for 5 min, samples were half-diluted with water and the NMP production was analysed by HPLC to quantitatively measure the reaction products as described below in the analytical methods. All determinations were carried out in triplicate assuming Michaelis-Menten conditions, and the maximum error was below 5%. In such conditions, one international activity unit (IU) was defined as the amount of enzyme producing 1 μmol/min of UMP under the assay conditions.
Substrate specificity studies Enzymatic synthesis of the different pyrimidine nucleoside monophosphate (NMP) derivatives was carried out by incubating 0.5 μg of pure His-tag enzyme with 1 mM PRPP, 1 mM pyrimidine base and 5 mM MgCl2 in 50 mM PBS buffer pH 7.4 (1.6-3.2% v/v DSMO). The experiments were performed according to the standard assay. Subsequently, the reaction mixture was processed as described above and the NMP production was analyzed by HPLC.
Analytical methods: The production of NMPs was quantitatively measured with an ACE EXCEL 5 μm CN-ES 250×4.6 mm equilibrated with 100% trimethyl ammonium acetate at a flow rate of 0.8 mL/min. Retention times for the reference bases and NMPs (hereafter abbreviated according to the recommendations of the IUPAC-IUB Commission on Biochemical Nomenclature) were as follows: uracil (Ura), 4.7 min; 5-azido uracil (5-AUra). […]
Following these exciting observations, a more quantitative approach to examined for differences between enzyme mutants and their enzyme kinetics with the analogs. […] Each purified enzyme was incubated with the different substrates and phosphoribosyltransferase activity was measured (FIG. 9A).

(−)TgUPRT HEK cells = experiment: Background incorporation of uracil analogs into RNA, streptavidin-HRP dot blot; type: cell-based; conditions: 1 mM, mimics in vivo applications, FIG. 4
Protocol: (§1) Transfection, labeling of cellular RNA and RNA isolation: After 48h seeding, HEK293 cells were transfected with 2.5 μg of TgUPRT WT or mutant plasmids (pKN-CMV-TgUPRT-WT or -Mutt to Mut17) per 5 cm plate using JetPrime Transfection reagent (Polyplus Transfection, France). At 40h post-transfection, cells were incubated with a final concentration of 200 μM at <1% DMSO from 400 mM stock of uracil analogs (5EU, 5VU, 5AU) or 200 mM SAMU stock for 5 h. For time course study, HEK cells were treated with 200 μM uracil analogs for 0 h, 0.5, 1, 3, 5, 12 and 24 hours. For titrating uracil analog concentration experiments, HEK cells were treated with 0 (DMSO), 50, 100, 200, 500 μM or 1 mM uracil analog for 5h. Treated HEK cells were subjected to total RNA extraction using 1 mL Trizol Reagent (Invitrogen) following the manufacturer instructions.
(§2) Biotinylation via CuAAC and IEDDA: Cu-mediated Azide-Alkyne cycloaddition (CuAAC) click reactions were performed in 50 μL reaction at 22° C. on a shaker for 30 min with click reaction cocktail containing 15 μg of total RNA, 1 mM biotin alkyne or biotin azide, fresh 4.6 mM THPTA to a final concentration of 1 mM, and fresh 10.6 mM sodium ascorbate (NaAsc) at final concentration of 1.77 mM, and 12 mM CuSO4 at final concentration of 200 μM in biotinylation reaction buffer (10 mM TrisHCI, 1 mM EDTA, pH7.4). The biotinylated RNA was purified using RNA clean & Concentrator-5 kit (Zymo Research, Cat #R1013) according to the manufacturer instructions and eluted in 21 μL of nuclease free water.
(§3) Inverse electron demand [4+2] Diels-Alder cycloaddition (IEDDA) click reactions were performed in 50 μL at 37° C. or 22° C. (RT) for 3h on mixer at 500 rpm containing 10-15 μg of total RNA, 1 mM final concentration of biotin-benzyl tetrazine (Sigma Aldrich, Cat #793329-5MG) in nuclease free water. Clicked total RNA was purified using RNA clean & Concentrator-5 kit (Zymo Research, Cat #R1013) according to the manufacturer instructions, and RNA was eluted in 21 μL of nuclease free water.
HRP-streptavidin dot blot analysis: All gel reagents were from Bio-Rad. For dot blot analysis, 2 μg of clicked total RNA was applied onto Hybond-N+ membrane (GE Healthcare) as individual dots and UV-crosslinked (254 nm) to a membrane (Stratalinker UV crosslinker). Membranes were blocked in blocking buffer (0.12 M NaCl, 0.016 M Na2HPO4, 0.008 M NaH2PO4, 0.17 M SDS) and followed by incubation with high sensitivity streptavidin-HRP (Fisher Scientific, Cat #: P121130) at 1:5000 dilution in blocking buffer for 5 minutes. The membrane was washed twice in a Wash A buffer (1:10 dilution of blocking buffer) and twice in Wash B buffer (Tris-saline buffer). […]

UPRT(+)-microglia brains = experiment: In vivo labeling of brain RNA in mice transplanted with UPRT-expressing human microglia, biotin dot blot; conditions: IP close to 150 mg/kg, 24-48 hours, FIG. 14
Protocol: 5-vinyl-uracil (Alfa Aesar #4437903) was prepared in sterile conditions at 4 times the concentration in 100% DMSO, then diluted to 25% DMSO by adding corn oil to a final concentration of 500 mM. The mixture was heated to 37° C. for […] until homogenous. Mice are weighed before intraperitoneal injection (IP) injection to ensure close to 150 mg/kg are injected per treatment. For an (˜20 g) adult mouse typically 60-70 μl are IP injected per treatment. Mice are monitored for signs of distress. After 24-48 hours of treatment, mice were sacrificed and brains were immediately placed into 2 ml of RNAlater and left in 4° C. for 3-5 days. After removing brains from RNAlater, they were homogenized with RNAse-free 1.4 mm steel beads (Next Advance SSB14B-RNA) for 60 seconds and centrifuged at 4° C. for 5 min, maximum speed to separate the fatty layer. The bottom layer is collected, homogenized with 200 ul chloroform and centrifuged for 20 minutes, at 4° C. The aqueous layer is collected and 500 ul isopropanol added. After centrifugation for 30 minutes 4° C., the RNA pellet is washed in 70% Ethanol twice. After removing ethanol, the RNA pellet is resuspended in nuclease-free water and nanodrop to determine the concentration. From each sample, 15 μg of RNA was subjected in tetrazine-biotin ligation at 37° C., 500 RPM for 3 hours. The biotinylated RNA was purified with RNA Zymo Clean and Concentrator #5 and eluted with nuclease-free water. 2 μg of purified RNA was spotted onto a N+ Hybond membrane and UV-crosslinked at 254 nm (120,000 uJ). Membrane is blocked in blocking buffer (0.12 M NaCl, 0.016 M Na2HPO4, 0.008 M NaH2PO4, 0.17 M SDS) and followed by incubation with high sensitivity streptavidin-HRP (Fisher Scientific, Cat #: P121130) at 1:5000 dilution in blocking buffer for 5 minutes. The membrane was washed twice in a Wash A buffer (1:10 dilution of blocking buffer) and twice in Wash B buffer (Tris-saline buffer). It was then incubated for 1-5 min. in ECL Chemiluminescent Substrate (Fisher Scientific, Cat #: P132106) and imaged on a ChemiDoc MP imaging system (Bio-Rad). […]

[1] = biological target: T1, uracil monophosphate synthetase (UMPS) overexpressed in HEK cells (Homo sapiens, UniProt P11172); experiment: RNA incorporation with overexpression of UMPS, dot blot; type: cell-based; conditions: 1 mM, 24 hours, FIG. 12
T1 construct: expressed in transfected cells; host or cells: HEK cells
T1 sequence (P11172 1-480): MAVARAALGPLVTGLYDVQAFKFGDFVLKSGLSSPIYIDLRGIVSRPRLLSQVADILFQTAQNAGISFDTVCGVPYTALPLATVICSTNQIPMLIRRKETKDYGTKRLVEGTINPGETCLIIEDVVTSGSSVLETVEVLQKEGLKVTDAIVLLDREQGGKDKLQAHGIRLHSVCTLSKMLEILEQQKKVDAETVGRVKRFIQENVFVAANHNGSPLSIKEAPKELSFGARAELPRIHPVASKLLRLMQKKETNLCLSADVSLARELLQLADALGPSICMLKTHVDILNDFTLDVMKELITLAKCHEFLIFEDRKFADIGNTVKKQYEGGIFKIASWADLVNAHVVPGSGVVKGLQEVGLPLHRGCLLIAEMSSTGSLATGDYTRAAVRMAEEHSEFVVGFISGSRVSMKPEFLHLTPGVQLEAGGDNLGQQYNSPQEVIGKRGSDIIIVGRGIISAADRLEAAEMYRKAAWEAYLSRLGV
Protocol: Analogs were incubated for 24 hours at 1 mM concentration in HEK cells. RNA was extracted and biotinylated using MTSEA-Biotin, followed by dot-blot analysis. Strep-HRP=Streptavidin conjugated Horseradish peroxidase. MeBI=methylene blue staining serving as loading control.

[2] = biological target: T2, wild-type (WT) TgUPRT in HEK cells (Toxoplasma gondii, UniProt Q26998); experiment: In-cell RNA incorporation by wild-type TgUPRT, streptavidin dot blot; type: cell-based; conditions: wild-type TgUPRT active site
T2 construct: 6xHis; expressed in transfected cells; host or cells: HEK293 (HEK293T)
T2 sequence (Q26998 whole entry): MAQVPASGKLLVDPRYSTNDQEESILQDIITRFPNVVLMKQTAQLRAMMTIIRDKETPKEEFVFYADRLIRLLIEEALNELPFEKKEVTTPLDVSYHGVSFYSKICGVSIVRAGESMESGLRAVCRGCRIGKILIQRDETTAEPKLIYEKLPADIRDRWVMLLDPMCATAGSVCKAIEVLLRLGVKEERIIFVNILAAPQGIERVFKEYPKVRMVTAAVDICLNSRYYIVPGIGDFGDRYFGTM
Protocol: as §1, §2, §3
HRP-streptavidin dot blot analysis: All gel reagents were from Bio-Rad. […]

For `O=c1cc[nH]c(=O)[nH]1` [Uracil, uracil, reference compound], the “reactivity with the mutants (phosphoribosyltransferase activity)” value (mutants TgUPRT) was “reactivity of uracil for all five mutants was observed”.

`[N-]=[N+]=Nc1c[nH]c(=O)[nH]c1=O` [compound 4, 5-Azidopyrimidine-2,4(1H,3H)-dione] was tested, and the “incorporation into RNA at higher concentration” value ((−)TgUPRT HEK cells) was “higher incorporation”.

In the case of `C=Cc1cn([C@@H]2O[C@H](CO)[C@@H](O)[C@H]2O)c(=O)[nH]c1=O` [5-vinyluridine, reference compound], the “incorporation into brain RNA, UPRT(+)-microglia transplanted” value (UPRT(+)-microglia brains) is reported as “incorporated into brain RNA; also recorded: incorporation”.

In the case of `O=c1[nH]c(=S)ccn1[C@@H]1O[C@H](CO)[C@@H](O)[C@H]1O` [4-thiouridine, reference compound], the “incorporation into cellular RNA with UMPS overexpression” value [1] is reported as “incorporation”.

For `O=c1[nH]ccc(=S)[nH]1` [4-thiouracil, reference compound], the “TgUPRT-dependent incorporation into cellular RNA” value [2] was “has the ability to be incorporated into cellular RNA” and the “incorporation into cellular RNA with UMPS overexpression” value [1] was “higher amount”.

Reference: US20240117431A1, “STEM-CELL BASED BIOMARKER DISCOVERY” (THE REGENTS OF THE UNIVERSITY OF CALIFORNIA, priority 2020, published 2024)
